According to the supplement of paper PMC6965134:
± gives the standard deviation of the averaged measurements.

Assay: TIMS collisional cross section (CCS, N2) of the lipid ion; higher = larger ion cross section
Settings: ionization mode: positive, one isomer drawn

Structure (SMILES)	TIMS collisional cross section (sample type: Liver) [Å²]	TIMS collisional cross section (sample type: HeLa) [Å²]	TIMS collisional cross section (sample type: plasma) [Å²]
CC/C=C\C/C=C\C/C=C\C/C=C\CCCCCCC(=O)O[C@H](COCCCCCCCCCC/C=C\CCCCCCCC)COP(=O)([O-])OCC[N+](C)(C)C [PC O- 20:1@_20:4] (ion (formula + adduct): [C48H88NO7P+H] 1+)	299.9	–	–
CCCCCC/C=C\CCCCCCCC(=O)O[C@H](CO/C=C\CCCCCCCCCCCCCC)COP(=O)([O-])OCC[N+](C)(C)C [PC P- 16:0@_16:1] (ion (formula + adduct): [C40H78NO7P+H] 1+)	–	281.9	–
CCCCCCCC/C=C\CCCCCCCC(=O)O[C@H](CO/C=C\CCCCCCCCCCCCCC)COP(=O)([O-])OCC[N+](C)(C)C [PC P- 16:0@_18:1] (ion (formula + adduct): [C42H82NO7P+H] 1+)	–	–	287.7
CC/C=C\C/C=C\C/C=C\C/C=C\C/C=C\C/C=C\CCC(=O)O[C@H](CO/C=C\CCCCCCCCCCCCCC)COP(=O)([O-])OCC[N+](C)(C)C [PC P- 16:0@_22:6] (ion (formula + adduct): [C46H80NO7P+H] 1+)	–	291.3	–
CCCCCCCCCCCCCC/C=C\OC[C@H](COP(=O)([O-])OCC[N+](C)(C)C)OC(=O)CCCCCCCCCCCCCCC [PC P- 16:0_16:0] (ion (formula + adduct): [C40H80NO7P+H] 1+)	–	284.4	284.4
CCCCCC/C=C\CCCCCCCC(=O)O[C@H](CO/C=C\CCCCCCCCCCCCCCCC)COP(=O)([O-])OCC[N+](C)(C)C [PC P- 18:0@_16:1] (ion (formula + adduct): [C42H82NO7P+H] 1+)	–	288.6	–
CCCCC/C=C\C/C=C\C/C=C\CCCCCCC(=O)O[C@H](CO/C=C\CCCCCCCCCCCCCCCC)COP(=O)([O-])OCC[N+](C)(C)C [PC P- 18:0@_20:3] (ion (formula + adduct): [C46H86NO7P+H] 1+)	–	–	296.1
CCCCC/C=C\C/C=C\C/C=C\C/C=C\CCCCCC(=O)O[C@H](CO/C=C\CCCCCCCCCCCCCCCC)COP(=O)([O-])OCC[N+](C)(C)C [PC P- 18:0@_22:4] (ion (formula + adduct): [C48H88NO7P+H] 1+)	300.4	–	–
CC/C=C\C/C=C\C/C=C\C/C=C\C/C=C\C/C=C\CCC(=O)O[C@H](CO/C=C\CCCCCCCCCCCCCCCC)COP(=O)([O-])OCC[N+](C)(C)C [PC P- 18:0@_22:6] (ion (formula + adduct): [C48H84NO7P+H] 1+)	–	297.1 ± 0.71	–
CC/C=C\C/C=C\C/C=C\C/C=C\C/C=C\CCCC(=O)O[C@H](CO/C=C\CCCCCCCCCCCCCCCCCC)COP(=O)([O-])OCC[N+](C)(C)C [PC P- 20:0@_20:5] (ion (formula + adduct): [C48H86NO7P+H] 1+)	–	299.9	–
CC/C=C\C/C=C\C/C=C\C/C=C\C/C=C\C/C=C\CCC(=O)O[C@H](CO/C=C\CCCCCCCCCCCCCCCCCC)COP(=O)([O-])OCC[N+](C)(C)C [PC P- 20:0@_22:6] (ion (formula + adduct): [C50H88NO7P+H] 1+)	–	304.8	–
CC/C=C\C/C=C\C/C=C\C/C=C\C/C=C\C/C=C\CCC(=O)O[C@H](COC(=O)CCCCCCCCCCCCCC)COP(=O)(O)OCCN [PE 15:0@_22:6] (ion (formula + adduct): [C42H72NO8P+H] 1+)	275.7	–	–
CCCCCCCC/C=C\CCCCCCCC(=O)O[C@H](COC(=O)CCCCCCCCCCCCCCC)COP(=O)(O)OCCN [PE 16:0@_18:1] (ion (formula + adduct): [C39H76NO8P+H] 1+)	275.7	–	275.3
CC/C=C\C/C=C\C/C=C\C/C=C\C/C=C\C/C=C\CCC(=O)O[C@H](COC(=O)CCCCCCCCCCCCCCC)COP(=O)(O)OCCN [PE 16:0@_22:6] (ion (formula + adduct): [C43H74NO8P+H] 1+)	–	–	279.1
CCCCCCCCCCCCCCCC(=O)OC[C@H](COP(=O)(O)OCCN)OC(=O)CCCCCCCCCCCCC [PE 16:0_14:0@] (ion (formula + adduct): [C35H70NO8P+H] 1+)	–	267.4	–
CCCCCCCC/C=C\CCCCCCCC(=O)O[C@H](COC(=O)CCCCCCCCCCCCCCC)COP(=O)(O)OCCN [PE 16:0_18:1] (ion (formula + adduct): [C39H76NO8P+H] 1+)	–	275.3	–
CCCCC/C=C\C/C=C\CCCCCCCC(=O)O[C@H](COC(=O)CCCCCCCCCCCCCCC)COP(=O)(O)OCCN [PE 16:0_18:2] (ion (formula + adduct): [C39H74NO8P+H] 1+)	272.9	–	273
CC/C=C\C/C=C\C/C=C\CCCCCCCC(=O)O[C@H](COC(=O)CCCCCCCCCCCCCCC)COP(=O)(O)OCCN [PE 16:0_18:3@] (ion (formula + adduct): [C39H72NO8P+H] 1+)	269.9	–	–
CCCCC/C=C\C/C=C\C/C=C\C/C=C\CCCC(=O)O[C@H](COC(=O)CCCCCCCCCCCCCCC)COP(=O)(O)OCCN [PE 16:0_20:4] (ion (formula + adduct): [C41H74NO8P+H] 1+)	277.25 ± 0.49	276.1 ± 1.1	–

Structure (SMILES)	TIMS collisional cross section (sample type: Liver) [Å²]	TIMS collisional cross section (sample type: HeLa) [Å²]	TIMS collisional cross section (sample type: plasma) [Å²]
CC/C=C\C/C=C\C/C=C\C/C=C\C/C=C\C/C=C\CCC(=O)O[C@H](COC(=O)CCCCCCCCCCCCCCC)COP(=O)(O)OCCN [PE 16:0_22:6@] (ion (formula + adduct): [C43H74NO8P+H] 1+)	280.9	–	–
CC/C=C\C/C=C\C/C=C\C/C=C\C/C=C\C/C=C\CCC(=O)O[C@H](COC(=O)CCCCCCCCCCCCCCC)COP(=O)(O)OCCN [PE 16:0_22:6] (ion (formula + adduct): [C43H74NO8P+H] 1+)	–	278.6	–
CCCCCC/C=C\CCCCCCCC(=O)OC[C@H](COP(=O)(O)OCCN)OC(=O)CCCCCCCCCCCCCCC [PE 16:1@_16:0] (ion (formula + adduct): [C37H72NO8P+H] 1+)	268.7	–	–
CCCCC/C=C\C/C=C\C/C=C\CCCCC(=O)O[C@H](COC(=O)CCCCCCC/C=C\CCCCCC)COP(=O)(O)OCCN [PE 16:1@_18:3] (ion (formula + adduct): [C39H70NO8P+H] 1+)	266	–	–
CCCCCC/C=C\CCCCCCCC(=O)OC[C@H](COP(=O)(O)OCCN)OC(=O)CCCCCCCCCCCCC [PE 16:1_14:0] (ion (formula + adduct): [C35H68NO8P+H] 1+)	–	262	–
CCCCCC/C=C\CCCCCCCC(=O)OC[C@H](COP(=O)(O)OCCN)OC(=O)CCCCCCCCCCCCCCC [PE 16:1_16:0] (ion (formula + adduct): [C37H72NO8P+H] 1+)	–	268.7	–
CCCCCC/C=C\CCCCCCCC(=O)OC[C@H](COP(=O)(O)OCCN)OC(=O)CCCCCCC/C=C\CCCCCC [PE 16:1_16:1] (ion (formula + adduct): [C37H70NO8P+Na] 1+)	–	266.4	–
CCCCCC/C=C\CCCCCCCC(=O)OC[C@H](COP(=O)(O)OCCN)OC(=O)CCCCCCC/C=C\CCCCCCC [PE 16:1_17:1@] (ion (formula + adduct): [C38H72NO8P+H] 1+)	–	268.3	–
CC/C=C\C/C=C\C/C=C\C/C=C\C/C=C\CCCC(=O)O[C@H](COC(=O)CCCCCCC/C=C\CCCCCC)COP(=O)(O)OCCN [PE 16:1_20:5@] (ion (formula + adduct): [C41H70NO8P+H] 1+)	269.8	269.8	–
CCCCC/C=C\C/C=C\C/C=C\C/C=C\CCCC(=O)O[C@H](COC(=O)CCCCCCCCCCCCCCCC)COP(=O)(O)OCCN [PE 17:0_20:4@] (ion (formula + adduct): [C42H76NO8P+H] 1+)	280.35 ± 0.071	280.4	–
CCCCC/C=C\C/C=C\C/C=C\C/C=C\CCCC(=O)O[C@H](COC(=O)CCCCCCC/C=C\CCCCCCC)COP(=O)(O)OCCN [PE 17:1_20:4] (ion (formula + adduct): [C42H74NO8P+H] 1+)	275.6	–	–
CCCCCCCCCCCCCCCCCC(=O)OC[C@H](COP(=O)(O)OCCN)OC(=O)CCCCCCCCCCCCCCC [PE 18:0@_16:0] (ion (formula + adduct): [C39H78NO8P+H] 1+)	–	280.3	–
CCCCCCCC/C=C\CCCCCCCC(=O)O[C@H](COC(=O)CCCCCCCCCCCCCCCCC)COP(=O)(O)OCCN [PE 18:0@_18:1] (ion (formula + adduct): [C41H80NO8P+H] 1+)	282.2	–	282.1
CCCCC/C=C\C/C=C\C/C=C\CCCCC(=O)O[C@H](COC(=O)CCCCCCCCCCCCCCCCC)COP(=O)(O)OCCN [PE 18:0@_18:3] (ion (formula + adduct): [C41H76NO8P+H] 1+)	–	–	279
CCCCCCCCCCCCCCCCCC(=O)OC[C@H](COP(=O)(O)OCCN)OC(=O)CCCCCCCCCCCCCCCCC [PE 18:0_18:0] (ion (formula + adduct): [C41H82NO8P+Na] 1+)	286.2	286.4	–
CCCCCCCC/C=C\CCCCCCCC(=O)O[C@H](COC(=O)CCCCCCCCCCCCCCCCC)COP(=O)(O)OCCN [PE 18:0_18:1] (ion (formula + adduct): [C41H80NO8P+H] 1+)	–	282.2	–
CCCCC/C=C\C/C=C\CCCCCCCC(=O)O[C@H](COC(=O)CCCCCCCCCCCCCCCCC)COP(=O)(O)OCCN [PE 18:0_18:2] (ion (formula + adduct): [C41H78NO8P+H] 1+)	279.7	–	279.8
CCCCC/C=C\C/C=C\C/C=C\CCCCC(=O)O[C@H](COC(=O)CCCCCCCCCCCCCCCCC)COP(=O)(O)OCCN [PE 18:0_18:3@] (ion (formula + adduct): [C41H76NO8P+H] 1+)	278.7	–	–
